Source: ChEMBL document CHEMBL1201862, “PubChem BioAssay data set” (2004)
Active and inactive are the calls of the source. No stated cut-off is given here; in the data, actives have a measured IC50 and inactives only a lower limit.

Molecular target: Envelope glycoprotein gp160 (Human immunodeficiency virus 1, UniProt Q6QLK5)
Experiment: cell-free HIV fusion peptide-binding blockers – biochemical, uHTS, fluorescence dequenching, […] (AID 1986)

Sequence of Envelope glycoprotein gp160 (Q6QLK5 whole entry, the tested form may be a part): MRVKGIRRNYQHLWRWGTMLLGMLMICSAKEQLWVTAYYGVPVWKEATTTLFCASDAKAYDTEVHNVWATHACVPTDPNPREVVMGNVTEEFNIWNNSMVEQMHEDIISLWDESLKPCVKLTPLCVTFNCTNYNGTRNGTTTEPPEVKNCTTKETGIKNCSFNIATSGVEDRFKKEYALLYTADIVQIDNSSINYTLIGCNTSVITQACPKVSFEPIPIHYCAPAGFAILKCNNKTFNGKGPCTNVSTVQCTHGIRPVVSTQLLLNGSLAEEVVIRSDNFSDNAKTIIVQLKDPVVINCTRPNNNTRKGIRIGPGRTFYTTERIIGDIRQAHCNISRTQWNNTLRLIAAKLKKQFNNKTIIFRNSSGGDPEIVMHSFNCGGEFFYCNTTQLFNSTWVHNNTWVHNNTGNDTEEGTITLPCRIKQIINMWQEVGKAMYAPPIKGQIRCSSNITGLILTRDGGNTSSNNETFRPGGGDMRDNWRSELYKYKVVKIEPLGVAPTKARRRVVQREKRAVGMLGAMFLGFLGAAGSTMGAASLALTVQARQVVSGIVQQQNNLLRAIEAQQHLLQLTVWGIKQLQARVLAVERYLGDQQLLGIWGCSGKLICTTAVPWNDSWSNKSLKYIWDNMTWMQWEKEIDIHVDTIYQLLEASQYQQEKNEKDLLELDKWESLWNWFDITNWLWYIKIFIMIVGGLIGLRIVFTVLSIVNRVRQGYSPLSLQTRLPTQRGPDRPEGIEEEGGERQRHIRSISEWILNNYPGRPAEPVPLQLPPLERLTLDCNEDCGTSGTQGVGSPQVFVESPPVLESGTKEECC

Row | Structure (SMILES) | IC50
1 | O=C(COc1ccc(Cl)cc1Cl)Nc1ccc(C(=O)Nc2ccccc2C(=O)O)cc1 | 9.54 µM (active)
2 | COc1cc(NS(=O)(=O)c2ccc(NC(=S)NC(=O)c3sc4ccccc4c3Cl)cc2)nc(OC)n1 | 16.5 µM (active)
3 | CC(C)S(=O)(=O)C1=NSC2=NC(=O)/C(=C\c3ccc(-c4cccc(C(=O)O)c4)o3)C(=N)N21 | 18.3 µM (active)
4 | CCCCCC#CCC#CCC#CCC#CCCCC(=O)O | 11.9 µM (active)
